Test results: patent publication US8999969B2, “Anti-RSV compounds” (Gilead Sciences, Inc., priority 2009, dated 2015)

System: RSV strain A2
Experiment: in vitro cytoprotection assay against RSV in Hep2 cells
Assay type: cell-based
Settings: human respiratory syncytial virus, HEp-2, 96 h; 1 uM compound; RSV-induced cytopathic effect in Hep2 cells, 4 days, Cell TiterGlo; read-out: RSV % inh. @ 1 uM
Method: Antiviral activity against RSV was determined using an in vitro cytoprotection assay in Hep2 cells. […] The method used is similar to methods previously described in Chapman J et al., “RSV604 a novel inhibitor of respiratory syncytial virus replication,” Antimicrob Agents Chemother, 51(9):3346-53 (2007).
Hep2 cells were obtained from ATCC (Manassas, Va.) and maintained in MEM media supplemented with 10% fetal bovine serum and penicillin/streptomycin. Cells were passaged twice a week and kept at subconfluent stage. Commercial stock of RSV strain A2 (Advanced Biotechnologies, Columbia, Md.) was titered before compound testing to determine the appropriate dilution of the virus stock that generates desirable cytopathic effect in Hep2 cells.
For antiviral tests, Hep2 cells were seeded into 96-well plates 24 hours before the assay at a density of 3,000 cells/well. On a separate 96well plate, tested compounds were serially diluted in cell culture media. Eight concentrations in 3-fold serial dilution increments were prepared for each tested compound and 100 uL/well of each dilution was transferred in duplicate onto plates with seeded Hep2 cells. Subsequently, appropriate dilution of virus stock previously determined by titration was prepared in cell culture media and 100 uL/well was added to test plates containing cells and serially diluted compounds. Each plate included three wells of infected untreated cells and three wells of uninfected cells that served as 0% and 100% virus inhibition control, respectively. Following the infection with RSV, testing plates were incubated for 4 days in a tissue culture incubator. After the incubation, RSV-induced cytopathic effect was determined using a Cell TiterGlo reagent (Promega, Madison, Wis.) followed by a luminescence read-out. The percentage inhibition was calculated for each tested concentration relative to the 0% and 100% inhibition controls and the EC50 value for each compound was determined by non-linear regression as a concentration inhibiting the RSV-induced cytopathic effect by 50%. Ribavirin (purchased from Sigma, St. Louis, Mo.) was used as a positive control for antiviral activity.

## O=C(NC1CC1)c1cc2c(s1)-c1ccccc1N(C(=O)c1ccc(NC(=O)c3cccnc3Br)cc1)CC2 [Example 1]
  inhibition at 1 µM: 76%

## O=C(NC1CC1)c1cc2c(s1)-c1ccccc1N(C(=O)c1ccc(NC(=O)c3ccccc3I)cc1)CC2 [Example 2]
  inhibition at 1 µM: 78%

## O=C(NC1CC1)c1cc2c(s1)-c1ccccc1N(C(=O)c1ccc(NC(=O)c3ccccc3N3CCCC3)cc1)CC2 [Example 3]
  inhibition at 1 µM: 100%

## O=C(NC1CC1)c1cc2c(s1)-c1ccccc1N(C(=O)c1ccc(NC(=O)c3ccncc3Br)cc1)CC2 [Example 4]
  inhibition at 1 µM: 78%

## O=C(NC1CC1)c1cc2c(s1)-c1ccccc1N(C(=O)c1ccc(NC(=O)c3ncccc3Br)cc1)CC2 [Example 5]
  inhibition at 1 µM: 79%

## C[C@@H]1CCCN1c1ncccc1C(=O)Nc1ccc(C(=O)N2CCc3cc(C(=O)NC4CC4)sc3-c3ccccc32)cc1 [Example 6]
  inhibition at 1 µM: 100%

## O=C(NC1CC1)c1cc2c(s1)-c1ccccc1N(C(=O)c1ccc(NC(=O)c3cccnc3N3CC(F)(F)C3)cc1)CC2 [Example 7]
  inhibition at 1 µM: 100%

## O=C(NC1CC1)c1cc2c(s1)-c1ccccc1N(C(=O)c1ccc(NC(=O)c3ccccc3-c3ccc(F)cc3)cc1)CC2 [Example 8]
  inhibition at 1 µM: 100%

## O=C(NC1CC1)c1cc2c(s1)-c1ccccc1N(C(=O)c1ccc(NC(=O)c3cccnc3N3CCC(F)(F)C3)cc1)CC2 [Example 9]
  inhibition at 1 µM: 100%

## O=C(NC1CC1)c1cc2c(s1)-c1ccccc1N(C(=O)c1ccc(NC(=O)c3cccnc3N3CC4(COC4)C3)cc1)CC2 [Example 10]
  inhibition at 1 µM: 100%

## O=C(NC1CC1)c1cc2c(s1)-c1ccccc1N(C(=O)c1ccc(NC(=O)c3ccccc3-c3cccs3)cc1)CC2 [Example 11]
  inhibition at 1 µM: 99%

## O=C(NC1CC1)c1cc2c(s1)-c1ccccc1N(C(=O)c1ccc(NC(=O)c3ccncc3N3CCC3)cc1)CC2 [Example 12]
  inhibition at 1 µM: 97%

## CC(C)c1ccccc1C(=O)Nc1ccc(C(=O)N2CCc3cc(C(=O)NC4CC4)sc3-c3ccccc32)cc1 [Example 13]
  inhibition at 1 µM: 99%

## O=C(NC1CC1)c1cc2c(s1)-c1ccccc1N(C(=O)c1ccc(NC(=O)c3cnccc3C(F)(F)F)cc1)CC2 [Example 14]
  inhibition at 1 µM: 100%

## COc1ccc(C(=O)Nc2ccc(C(=O)N3CCc4cc(C(=O)NC5CC5)sc4-c4ccccc43)cc2)cc1 [Example 15]
  inhibition at 1 µM: 97%

## O=C(NC1CC1)c1cc2c(s1)-c1ccccc1N(C(=O)c1ccc(NC(=O)c3ccccc3Cc3ccccc3)cc1)CC2 [Example 17]
  inhibition at 1 µM: 100%

## O=C(Nc1ccc(C(=O)N2CCc3cc(C(=O)NC4CC4)sc3-c3ccccc32)cc1)c1cc(N2CCC2)ccn1 [Example 18]
  inhibition at 1 µM: 98%

## O=C(NC1CC1)c1cc2c(s1)-c1ccccc1N(C(=O)c1ccc(NC(=O)c3cnccc3N3CCC3)cc1)CC2 [Example 19]
  inhibition at 1 µM: 100%

## Cn1ccc2cccc(C(=O)Nc3ccc(C(=O)N4CCc5cc(C(=O)NC6CC6)sc5-c5ccccc54)cc3)c21 [Example 20]
  inhibition at 1 µM: 99%

## O=C(Nc1ccc(C(=O)N2CCc3cc(C(=O)NC4CC4)sc3-c3ccccc32)cc1)c1ccnc(N2CCC2)c1 [Example 21]
  inhibition at 1 µM: 94%

## Cc1ccsc1C(=O)Nc1ccc(C(=O)N2CCc3cc(C(=O)NC4CC4)sc3-c3ccccc32)cc1 [Example 22]
  inhibition at 1 µM: 90%

## Cc1cc(C(=O)Nc2ccc(C(=O)N3CCc4cc(C(=O)NC5CC5)sc4-c4ccccc43)cc2)n(C(C)(C)C)n1 [Example 24]
  inhibition at 1 µM: 78%

## O=C(NC1CC1)c1cc2c(s1)-c1ccccc1N(C(=O)c1ccc(NC(=O)c3cccc4nccnc34)cc1)CC2 [Example 25]
  inhibition at 1 µM: 64%

## O=C(NC1CC1)c1cc2c(s1)-c1ccccc1N(C(=O)c1ccc(NC(=O)c3cccnc3C(F)(F)F)cc1F)CC2 [Example 26]
  inhibition at 1 µM: 47%

## Cn1nc(C(=O)Nc2ccc(C(=O)N3CCc4cc(C(=O)NC5CC5)sc4-c4ccccc43)cc2)c2ccccc21 [Example 27]
  inhibition at 1 µM: 41%

## Cc1ccccc1C(=O)N1CCC(C(=O)Nc2ccc(C(=O)N3CCc4cc(C(=O)NC5CC5)sc4-c4ccccc43)cc2)CC1 [Example 28]
  inhibition at 1 µM: 15%

## Cn1nccc1C(=O)Nc1ccc(C(=O)N2CCc3cc(C(=O)NC4CC4)sc3-c3ccccc32)cc1 [Example 29]
  inhibition at 1 µM: 22%

## O=C(Nc1ccc(C(=O)N2CCc3cc(C(=O)NC4CC4)sc3-c3ccccc32)cc1)c1ccc(N2CCC2)nc1 [Example 31]
  inhibition at 1 µM: 30%

## O=C(NC1CC1)c1cc2c(s1)-c1ccccc1N(C(=O)c1ccc(NS(=O)(=O)c3ccccc3)cc1)CC2 [Example 34]
  inhibition at 1 µM: 90%

## O=C(NC1CC1)c1cc2c(s1)-c1ccccc1N(C(=O)c1ccc(NC(=O)c3cccnc3N3CCCC3)cc1)CC2 [Example 37]
  inhibition at 1 µM: 100%

## O=C(NC1CC1)c1cc2c(s1)-c1ccccc1N(C(=O)c1ccc(NC(=O)c3cccnc3N3CC[C@@H](F)C3)cc1)CC2 [Example 38]
  inhibition at 1 µM: 99%

## O=C(NC1CC1)c1cc2c(s1)-c1ccccc1N(C(=O)c1ccc(NC(=O)c3cccnc3N3CC[C@H](F)C3)cc1)CC2 [Example 39]
  inhibition at 1 µM: 94%

## C[C@H]1CCCN1c1ncccc1C(=O)Nc1ccc(C(=O)N2CCc3cc(C(=O)NC4CC4)sc3-c3ccccc32)cc1 [Example 40]
  inhibition at 1 µM: 98%

## O=C(NC1CC1)c1cc2c(s1)-c1ccccc1N(C(=O)c1ccc(NC(=O)c3cccnc3N3CCC[C@H]3C(F)(F)F)cc1)CC2 [Example 42]
  inhibition at 1 µM: 99%

## COC[C@@H]1CCCN1c1ncccc1C(=O)Nc1ccc(C(=O)N2CCc3cc(C(=O)NC4CC4)sc3-c3ccccc32)cc1 [Example 43]
  inhibition at 1 µM: 99%

## O=C(NC1CC1)c1cc2c(s1)-c1ccccc1N(C(=O)c1ccc(NC(=O)c3cccnc3N3CC[C@@H](O)C3)cc1)CC2 [Example 44]
  inhibition at 1 µM: 77%

## O=C(NC1CC1)c1cc2c(s1)-c1ccccc1N(C(=O)c1ccc(NC(=O)c3cccnc3N3CC(F)C3)cc1)CC2 [Example 45]
  inhibition at 1 µM: 100%

## O=C(NC1CC1)c1cc2c(s1)-c1ccccc1N(C(=O)c1ccc(NC(=O)c3cccnc3N3CCC3)cc1)CC2 [Example 46]
  inhibition at 1 µM: 98%

## COc1ccc(C(=O)Nc2ccc(C(=O)N3CCc4cc(C(=O)NC5CC5)sc4-c4ccccc43)cc2)c(C)c1 [Example 47]
  inhibition at 1 µM: 100%

## O=C(NCc1cccs1)c1cc2c(s1)-c1ccccc1N(C(=O)c1ccc(NC(=O)c3cccnc3N3CCCC3)cc1)CC2 [Example 48]
  inhibition at 1 µM: 100%

## O=C(Nc1ccc(C(=O)N2CCc3cc(C(=O)N4CCCC4)sc3-c3ccccc32)cc1)c1cccnc1N1CCCC1 [Example 49]
  inhibition at 1 µM: 30%

## O=C(NCc1ccccn1)c1cc2c(s1)-c1ccccc1N(C(=O)c1ccc(NC(=O)c3cccnc3N3CCCC3)cc1)CC2 [Example 50]
  inhibition at 1 µM: 100%

## C[C@H](NC(=O)c1cc2c(s1)-c1ccccc1N(C(=O)c1ccc(NC(=O)c3cccnc3N3CCCC3)cc1)CC2)C(N)=O [Example 51]
  inhibition at 1 µM: 46%

## O=C(NCc1nccs1)c1cc2c(s1)-c1ccccc1N(C(=O)c1ccc(NC(=O)c3cccnc3N3CCCC3)cc1)CC2 [Example 52]
  inhibition at 1 µM: 100%

## NS(=O)(=O)CCNC(=O)c1cc2c(s1)-c1ccccc1N(C(=O)c1ccc(NC(=O)c3cccnc3N3CCCC3)cc1)CC2 [Example 53]
  inhibition at 1 µM: 1%

## O=C(Nc1ccccn1)c1cc2c(s1)-c1ccccc1N(C(=O)c1ccc(NC(=O)c3cccnc3N3CCCC3)cc1)CC2 [Example 54]
  inhibition at 1 µM: 99%
